Measurements reported in PMC6985109, “Cellular apoptosis and necrosis as therapeutic targets for novel Eugenol Tosylate Congeners against Candida albicans” (Scientific Reports, 2020).
Converted amounts (≈) assume the structure as drawn.

Assays:
Candida albicans 5112 = assay: Broth microdilution antifungal susceptibility (MIC/MFC); format: cell-based; settings: strain 5112, FLC resistant
Procedure: (§1) In this study, 10 clinical Candida albicans isolates, comprising of 5 fluconazole susceptible and 5 fluconazole resistant, were used. C. albicans SC5314 was also used as a control laboratory strain. Clinical strains used in this study were stored at −80 °C supplemented with 20% glycerol in the Department of Clinical Microbiology and Infectious Diseases, University of the Witwatersrand, Johannesburg and were previously collected under the ethical clearance number M000402, obtained from the Human Research Ethics Committee, University of the Witwatersrand. For experimental purpose each strain from glycerol stock was recovered on Sabouraud Dextrose (SDA) agar plates at 37 °C for 24 h.
(§2) Minimum Inhibitory Concentration (MIC) and Minimum Fungicidal Concentrations (MFC) of all newly synthesized eugenol-tosylate congeners (ETC-1–ETC-7) against C. albicans strains were determined by broth microdilution assay in accordance with the approved guidelines described by Clinical and Laboratory Standards Institute (CLSI) guidelines M27-A[38]. The test compounds were prepared in 1% DMSO to a stock concentration of 8192 µg/ml. Two-fold dilutions of test compounds (100 µL) were prepared in 96-well flat-bottom microtiter plates, inoculated with 100 µl of inoculum (1 × 10^6 cells/mL) and incubated at 37 °C for 24 hours. In every set of experiment, positive control (fluconazole), negative vehicle control (1% DMSO) and culture control (media and cells only) were included. MIC’s were determined visibly as the lowest concentration of the test compounds that inhibited growth of test organism. To determine MFC, each well without visible growth was sub-cultured onto agar plates. Concentration in the first well with no growth on plate was taken as MFC. […] The experiment was performed in triplicate to validate the results.

Candida albicans 4122 = assay: as above; format: cell-based; settings: strain 4122, FLC resistant
Procedure: as §1, §2

Candida albicans 4576 = assay: as above; format: cell-based; settings: strain 4576, FLC susceptible
Procedure: as §1, §2

Candida albicans 4563 = assay: as above; format: cell-based; settings: strain 4563, FLC susceptible
Procedure: as §1, §2

Candida albicans 4175 = assay: as above; format: cell-based; settings: Candida albicans, strain 4175, FLC susceptible
Procedure: as §1, §2

Candida albicans SC5314 = assay: as above; format: cell-based; settings: SC5314, FLC susceptible
Procedure: as §1, §2

[1] = system: cytochrome c oxidase activity in C. albicans SC5314, C. albicans 4175 and C. albicans 5112; assay: Cytochrome c oxidase activity in mitochondria of treated cells; format: cell-based, Candida albicans; settings: 3 h, range over three strains
Procedure: To study the effect of test compounds on apoptotic markers protoplasts were prepared as described previously, with modifications. Briefly, mid-exponential phase cells were harvested and exposed to various concentrations of test compounds (0.5 × MIC, 1 × MIC and 2×MIC) for 3 h. The cells were then washed twice with protoplast buffer- I (1 M sorbitol, 50 mM tris base, 10 mM MgCl2 and 30 mM DTT) and incubated in the same buffer for 15 minutes at 25 °C, followed by centrifugation at 1500 rpm for 5 minutes. Supernatant was removed and cells were incubated with buffer- II (1 M sorbitol, 50 mM tris base, 10 mM MgCl2 and 1 mM DTT) supplemented with lyticase enzyme (≥1 µg/mL) used to digest the cell wall for 1 h at 25 °C. Buffer- II were removed by centrifugation and then cells were incubated with buffer- III (1 M sorbitol, 50 mM tris base and 10 mM MgCl2) for 20 minutes at room temperature. After the incubation cells were again centrifuged at 1500 rpm for 5 minutes and supernatant was discarded. Protoplasts then finally washed once with PBS and re-suspended in the same for further use. In each washing steps the volume of these protoplast buffers were 5 times to cell volume with pH 7.4.
After the cells were exposed to different concentrations of test compounds as mentioned above, mitochondria of the cells were isolated using Yeast Mitochondria Isolation Kit- MITOISO3 (Sigma – Aldrich St. Louis, MO, U.S.A.). Cytochrome c oxidase assay kit (ScienCell, Cat. No. 8278, CA, USA) was used to detect the cytochrome c oxidase activity. In all procedures, kits were used according to the manufacturer’s instructions. Briefly, prepared spheroplasts were followed by homogenization to release the mitochondria. Homogenate was centrifuged in 1X storage buffer (1 ml) at 6,500 × g for 10 minutes at 2–8 °C. […] Protein concentration was determined by using TCA Lowry method. […] Immediately change in absorbance of cytochrome c was measured at 550 nm on a kinetic program (duration 30 seconds, interval 5 seconds) by using UV-1800 SHIMADZU spectrophotometer (Shimadzu Corporation, Japan).

## C=CCc1ccc(OS(=O)(=O)c2ccc(C(=O)O)cc2)c(OC)c1 [ETC-7, 4-{[2-methoxy-4-(prop-2-en-1-yl)phenoxy]sulfonyl}benzoic acid]
Candida albicans 5112
  MFC: 16 µg/mL (≈ 45.9 µM)
Candida albicans 5112; 37 °C, 24 h
  MIC: 8 µg/mL (≈ 23 µM)
Candida albicans 4122
  MFC: 16 µg/mL (≈ 45.9 µM)
Candida albicans 4122; 37 °C, 24 h
  MIC: 8 µg/mL (≈ 23 µM)
Candida albicans 4576
  MFC: 4 µg/mL (≈ 11.5 µM)
Candida albicans 4576; 37 °C, 24 h
  MIC: 2 µg/mL (≈ 5.74 µM)
Candida albicans 4563
  MFC: 2 µg/mL (≈ 5.74 µM)
Candida albicans 4563; 37 °C, 24 h
  MIC: 1 µg/mL (≈ 2.87 µM)
Candida albicans 4175
  MFC: 2 µg/mL (≈ 5.74 µM)
Candida albicans 4175; 37 °C, 24 h, read-out: MIC
  MIC: 1 µg/mL (≈ 2.87 µM)
Candida albicans SC5314
  MFC: 2 µg/mL (≈ 5.74 µM)
Candida albicans SC5314; 37 °C, 24 h
  MIC: 1 µg/mL (≈ 2.87 µM)
[1]; 0.5 × MIC
  cytochrome c oxidase enzyme activity decreased up to: 11.33–18.07%
[1]; 1 × MIC
  cytochrome c oxidase enzyme activity decreased up to: 9.20–13.92%
[1]; 2 × MIC
  cytochrome c oxidase enzyme activity decreased up to: 5.21–9.88%
